Measurements as given in patent US20050148607A1, “Preventives and/or remedies for subjects with the expression or activation of her2 and/or egfr” (priority 2002, published 2005).

Columns and labels:
[1] = tested on: EGFR overexpression cancer A431; conditions: EGFR overexpression cancer A431, literature; cited from earlier work
[2] = tested on: human rectal cancer LS174T (EGFR negative, Her2 positive); test: In vivo antitumor effects, LS174T xenograft in nude mice; conditions: Balb/c nude mice, final day
Protocol: (§1) Cultured human cancer cells suspended in PBS were implanted subcutaneously in the back of female Balb/c nude mice (Balb/cAJcl-nu mouse, CLEA Japan Inc., 5-week-old when received) at 5×10^6/100 μl. When about 7 days later and the average volume of the implanted tumors almost reached 100 mm^3, the mice were allotted by 4 mice per group such that the average tumor volume of each group became equal.
(§2) For the tumor volume, the longer diameter and the shorter diameter were measured with calipers and calculated as [(shorter diameter)^2×(longer diameter/2)]=tumor volume [mm^3]. A pharmaceutical agent was administered by oral gavage once a day for 14 consecutively days from the day of allottment, and the pharmaceutical agent was not administered to the mice of the control group. The relative tumor growth rate was calculated based on the tumor volume on the administration start day for the pharmaceutical agent treatment group against the control group as rate 1. The antitumor effects are shown in % control. The % control was calculated by the following formula. % control=[(average relative tumor growth rate of pharmaceutical agent treatment group on the final day-1)/(average relative tumor growth rate of control group on the final day-1)]×100

[3] = tested on: human pancreatic cancer HPAC (both EGFR, Her2 positive); test: In vivo antitumor effects, HPAC xenograft in nude mice; conditions: Balb/c nude mice, final day
Protocol: as §1, §2

[4] = tested on: human cervical cancer ME180 (EGFR positive, Her2 negative); test: In vivo antitumor effects, ME180 xenograft in nude mice; conditions: Balb/c nude mice, final day
Protocol: as §1, §2

[5] = tested on: human lung cancer NCI-H520 (both EGFR, Her2 negative); test: In vivo antitumor effects, NCI-H520 xenograft in nude mice; conditions: Balb/c nude mice, final day
Protocol: as §1, §2

erbB3 = conditions: MDA-MB-453 cells stimulated with Heregulin, literature; cited from earlier work
[6] = 10 mg/kg oral once a day for 14 days
[7] = 30 mg/kg oral once a day for 14 days

| Compound | in vivo antitumor effect [1] | % control [2, 6] | % control [2, 7] | % control [3, 6] | % control [3, 7] | % control [4, 6] | % control [4, 7] | % control [5, 6] | % control [5, 7] | inhibition of tyrosine phosphorylation of erbB3 (erbB3) |
| --- | --- | --- | --- | --- | --- | --- | --- | --- | --- | --- |
| C=CC(=O)Nc1cc2c(Nc3ccc(F)c(Cl)c3)ncnc2cc1OCCCN1CCOCC1 [PD, N-[4-(3-chloro-4-fluorophenyl)amino-7-[3-(4-morpholinyl)propoxy]quinazolin-6-yl]acrylamide] | shows an in vivo antitumor effect | 56 % control | 34 % control | 39 % control | 11 % control | – | – | – | – | – |
| C=CC(=O)Nc1cc2c(Nc3ccc(F)c(Cl)c3)ncnc2cc1OCCCN1CCOCC1 [PD.2HCl] | – | – | – | – | – | 25 % control | 17 % control | 95 % control | 87 % control | inhibit tyrosine phosphorylation |
